Data set [1] concerns mGluR2/3. Particulars: intra-accumbens infusion, microdialysis probes; cited from earlier work.
In data set [2] the test system is mGluR2/3 receptors. The settings on record: perfusion into the accumbens, in vivo microdialysis; cited from earlier work.
For data set [3], the system named is mGluR2/3. Particulars: cited from earlier work; for PFC glutamate levels: infusion/perfusion into PFC, microdialysis.
In data set [4] the target is T1, mGluR5 (Rattus norvegicus, UniProt P31424).
T1 construct: from tissue; host or cells: brain of living Sprague-Dawley rats (nucleus accumbens for CHPG microinjection; systemic dosing for MTEP, MPEP, Fenobam)
T1 sequence (P31424 21-1203): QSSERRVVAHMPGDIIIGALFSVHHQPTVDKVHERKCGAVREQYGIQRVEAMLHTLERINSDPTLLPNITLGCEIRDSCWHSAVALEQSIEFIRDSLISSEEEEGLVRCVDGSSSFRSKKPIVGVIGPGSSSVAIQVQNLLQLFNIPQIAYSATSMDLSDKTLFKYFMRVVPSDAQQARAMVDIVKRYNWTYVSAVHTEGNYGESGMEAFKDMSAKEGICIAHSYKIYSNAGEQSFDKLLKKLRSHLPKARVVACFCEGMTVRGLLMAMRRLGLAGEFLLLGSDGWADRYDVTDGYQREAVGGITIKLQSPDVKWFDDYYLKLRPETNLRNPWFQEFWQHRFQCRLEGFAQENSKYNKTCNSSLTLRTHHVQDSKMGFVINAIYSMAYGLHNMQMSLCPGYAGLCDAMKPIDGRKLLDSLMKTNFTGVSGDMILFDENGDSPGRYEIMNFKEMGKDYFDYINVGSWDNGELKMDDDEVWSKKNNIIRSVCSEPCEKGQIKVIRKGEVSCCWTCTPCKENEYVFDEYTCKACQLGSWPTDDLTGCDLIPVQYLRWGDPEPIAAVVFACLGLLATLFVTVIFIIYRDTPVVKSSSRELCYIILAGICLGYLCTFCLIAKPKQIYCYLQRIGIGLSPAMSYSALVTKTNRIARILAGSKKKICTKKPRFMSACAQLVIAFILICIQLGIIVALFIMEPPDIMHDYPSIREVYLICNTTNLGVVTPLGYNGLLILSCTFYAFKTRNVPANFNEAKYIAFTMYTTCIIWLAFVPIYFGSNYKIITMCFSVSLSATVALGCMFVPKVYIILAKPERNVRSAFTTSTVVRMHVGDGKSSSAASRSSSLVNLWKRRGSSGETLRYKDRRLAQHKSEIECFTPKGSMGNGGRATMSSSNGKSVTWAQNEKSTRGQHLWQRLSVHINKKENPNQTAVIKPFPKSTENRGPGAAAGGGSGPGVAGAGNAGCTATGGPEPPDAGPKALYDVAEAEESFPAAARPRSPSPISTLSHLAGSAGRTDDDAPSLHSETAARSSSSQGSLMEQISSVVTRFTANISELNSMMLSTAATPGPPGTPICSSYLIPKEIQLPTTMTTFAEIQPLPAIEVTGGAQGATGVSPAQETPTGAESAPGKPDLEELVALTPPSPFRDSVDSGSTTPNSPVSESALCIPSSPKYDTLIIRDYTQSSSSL
Nature of the data set: Cue-induced cocaine relapse (active lever presses), CHPG microinjected into nucleus accumbens (FIG. 1). Format: in vivo, rats. On the procedure: Relapse was induced by presenting the animal with a tone and light compound cue that was previously associated with cocaine delivery during the self-administration training. […] Data were analyzed using one-way ANOVA (2,14)=5.20, p=0.021; *p<0.05 compared to extinction, +p<0.05 comparing cue+aCSF (artificial cerebrospinal fluid control injection).
(§1) All experiments were conducted in accordance with the US National Institutes of Health guidelines for the care and use of laboratory animals, and all procedures were approved by the Institutional Animal Care and Use Committee at the Medical University of South Carolina. One week after arrival, male Sprague-Dawley rats (250 g) were anesthetized with ketamine HCl (87.5 mg kg^−1 Ketaset, Fort Dodge Animal Health) and xylazine (5 mg kg^−1 Rompum, Bayer) and implanted with intravenous catheters. The catheters were flushed daily with cefazolin (0.2 ml of a 0.1 g/ml solution) and heparin (0.2 ml of 100 units) to prevent infection and maintain catheter patency. Rats were allowed to recover for a week before behavioral training (Baker et al. Nat. Neurosci 6:743-749, 2003).
Rats were trained to self-administer cocaine in a standard operant chamber with two retractable levers. The self-administration regimen consisted of 10d of self-administration at >10 infusions per session. […]

For data set [5], the target named is T1, mGluR5. Kind of data set: Cocaine+cue induced reinstatement, low-dose mGluR5 antagonists in rats given N-acetylcysteine after extinction (FIG. 6). Format: in vivo. Particulars: MPEP 1.0 mg/kg/ip or Fenobam 1.75 mg/kg/ip. On the procedure:
Top, treatment protocol for cocaine, N-acetylcysteine, and mGluR5 antagonists.
Rats were injected with low doses of MPEP (1.0 mg/kg/ip) or Fenobam (1.75 mg/kg/ip) (FIG. 6), both systemically active and selective mGluR5 receptor antagonists (Carroll, 2008; Montana et al., 2009).
as §1
Rats were trained to self-administer cocaine in a standard operant chamber with two retractable levers. The self-administration regimen consisted of 10d of self-administration at >10 infusions per session. […] Cocaine self-administering rats were often paired with yoked saline controls. Extinction procedures began 24 h after the rat met the acquisition criterion and lasted for at least 3 weeks. Lever presses were inconsequential throughout the extinction training

In data set [6] the test system is mGluR2/3 receptors. Particulars: bath application, accumbens slices; cited from earlier work.
Data set [7] deals with T1, mGluR5. Nature of the data set: Cocaine relapse, chronic NAC or saline followed by acute MPEP (FIG. 3). The class given is in vivo. How it is done: Data were analyzed by a two-way ANOVA interaction F(1,20)=7.17, p=0.015; *p<0.05 comparing saline to MPEP.
Towards this end, the effects of chronic NAC followed by acute administration of mGluR5 modulator (MPEP) on relapse in the rat model were examined.
as §1
Rats were trained to self-administer cocaine in a standard operant chamber with two retractable levers. The self-administration regimen consisted of 10d of self-administration at >10 infusions per session. […] Cocaine self-administering rats were often paired with yoked saline controls. […]

The conditions of data set [8]: cited from earlier work.
For data set [9] the following is noted: cited from earlier work. This is another data set of the same source.
For data set [10] the following is noted: cited from earlier work. This is another data set of the same source.
For data set [11] the following is noted: humans; cited from earlier work.
Data set [12] relates to XC transporter. Particulars: cited from earlier work.
Data set [13] deals with system XC−. Particulars: cystine added to brain slices; cited from earlier work.
Setting [14] is: rats given N-acetylcysteine after extinction training.

“Also recorded” adds a separate entry of the source. Read-outs that look alike come from different tables or passages of the source.

`O=C(O)CCC(CP(=O)(O)O)C(=O)O` (centres unmarked) [2-PMPA, 2-(phosphonomethyl)-pentanedioic acid]: in data set [1], the basal dopamine levels entry is “reduce”.

As for `N[C@@]1(C(=O)O)CN[C@@H](C(=O)O)C1` [APDC, (2R,4R)-4-aminopyrrolidine-2,4-dycarboxylate], the “extracellular glutamate in the accumbens” value in data set [2] is “reduced extracellular glutamate levels”. Besides, the PFC glutamate levels result in [3] is given as “without effect”.

In the case of `NC(C(=O)O)c1cc(O)ccc1Cl` (centres unmarked) [CHPG], the “relapse induced by agonist alone” value in data set [4] (CHPG alone, without cue) is recorded as “did not induce relapse”. In addition, the “cue-induced relapse (active lever presses)” value in [4] (CHPG into nucleus accumbens plus tone and light cue, rats withdrawn 3-5 weeks after cocaine self-administration) is recorded as “dose-dependant increase”.

On to `N[C@H](C(=O)O)C1[C@@H](C(=O)O)[C@@H]1C(=O)O` (stereo partly drawn) [DCG-4, (2S,1′R,2′R,3′R)-2-(2,3-dicarboxycyclopropyl)glycine], for which the basal dopamine levels result in [1] is “reduce”.

`CN1CC(=O)N=C1NC(=O)Nc1cccc(Cl)c1` [Fenobam, 1-(3-chlorophenyl)-3-(3-methyl-5-oxo-4H-imidazol-2-yl)urea]: the figures for the “relapse to cocaine seeking (lever pressing)” value in [5] (setting [14]) and in data set [5] (vehicle treated rats) were “significantly reduced lever pressing; also recorded: inhibit relapse” and “not”, respectively.

Turning to `N[C@H](C(=O)O)[C@H]1C[C@@H]1C(=O)O` [L-CCG1, (2S,1′S,2′S)-2-(2′-carboxycyclopropyl)glycine], in [6], the mEPSC amplitude entry is “without affecting”, the mEPSC frequency entry is recorded as “reduced” and the paired pulse ratios result is “increased”.

For the compound `N[C@](CC1c2ccccc2Oc2ccccc21)(C(=O)O)[C@H]1C[C@@H]1C(=O)O` [LY341495], the “extracellular glutamate in the accumbens” value in [2] was “increased glutamate release”. Besides, the “glutamate levels in subcortical regions (nucleus accumbens and VTA)” value in data set [3] (infusion in the prefrontal cortex) is reported as “increased”. For the same compound, in data set [3], the PFC glutamate levels result is given as “increase”.

For `N[C@@]1(C(=O)O)CO[C@H]2[C@H](C(=O)O)[C@H]21` [LY379268], the basal dopamine levels result in data set [1] is on record as “reduce”.

Turning to `N[C@]1(C(=O)O)[C@H]2[C@@H](C[C@H]1OCc1ccc(Cl)c(Cl)c1)[C@]2(F)C(=O)O` [MGS0039], the basal dopamine levels result in data set [1] is “increase”.

Take `Cc1cccc(C#Cc2ccccc2)n1` [MPEP, 2-methyl-6-(phenylethynyl)pyridine]: the “relapse to cocaine seeking (lever pressing)” value was “significantly reduced lever pressing; also recorded: inhibit relapse” in data set [5] (setting [14]) and “not” in [5] (vehicle treated rats). Also, the “lever pressing (measure of relapse)” value in data set [7] (acute MPEP in animals treated chronically with NAC) was “reduced cocaine relapse; also recorded: reduced lever pressing”; in [7] (acute MPEP in animals treated chronically with saline), “without effect and not”.

Turning to `CC(N)(C(=O)O)c1ccc(P(=O)(O)O)cc1` (stereo not drawn) [MPPG, α-methyl-4-phosphonophenylglycine], the basal dopamine levels entry in data set [1] is reported as “increase”.

Take `CC(=O)N[C@@H](CS)C(=O)O` [NAC, N-acetylcysteine]: the peak concentration in [8] (600 mg i.v. dose) is 300 µM. The “peak NAC plasma concentration” value in [8] (humans, 400 mg oral dose) was 10 to 17 µM. The “peak NAC plasma concentration” value in [8] (humans, 600 mg oral dose) was 16 µM. The “time of peak NAC plasma concentration after administration” value in [8] (humans, 400 or 600 mg oral dose) is “one”. In data set [8] (oral NAC), the half-life was 6.25 h, the oral bioavailability is 4-10% and the “time to peak plasma concentration following ingestion” value was 1 to 2 h. The solubility entry in data set [9] is “more soluble”. Further, in data set [10] (clinical use), the side effects entry is “minimal and mostly limited to gastrointestinal discomfort; also recorded: without any noticeable side effects”. In addition, the toxicity result in [10] (compared with cystine and cysteine) is “less toxic”. In data set [11], the “cocaine, nicotine and marijuana use” value is “reduces but does not abolish”; the compulsive gambling behavior entry is “reduce”; the “desire for cocaine use” value is “reduce”; the marijuana abuse result is given as “reduce”. The “number of cigarettes smoked” value in data set [11] is “reduce”. The extinction responding entry in data set [12] (NAC for 2 weeks during extinction from heroin self-administration) was “reduces extinction responding”. For the same compound, in data set [12] (NAC for 2 weeks during extinction from heroin self-administration, up to one month after last injection), the reinstatement result is given as “prevents reinstatement”. Besides, the extinction responding result in data set [12] (NAC treatment during self-administration, after chronic cocaine) is listed as “reduces extinction responding”. For the same compound, in data set [12] (after chronic cocaine), the “extracellular glutamate levels in the accumbens” value is reported as “normalizes”. The “relapse to drug seeking” value in [12] (animal models of drug addiction) is “inhibit relapse to cocaine and heroin; also recorded: prevents relapse to drug seeking”. Further, the protection against relapse entry in [12] (chronic NAC during cocaine self-administration or heroin extinction, several weeks after last NAC injection) is reported as “enduring protection against relapse”.

Take `N[C@@H](CSSC[C@H](N)C(=O)O)C(=O)O` [cystine]: the solubility entry in data set [9] is given as “very limited solubility”. In addition, the extracellular glutamate levels result in data set [13] was “increases”.

The values above are taken from patent publication US20120046232A1, “COMPOSITIONS AND METHODS FOR REDUCING RELAPSE OF ADDICTIVE BEHAVIOR” (Medical University of South Carolina, priority 2010, published 2012).
